This passage reports AC40 results from PubChem BioAssay AID624258 (Broad Institute, 2012).

The subject of the test is S. cerevisiae SKN7-toxicity growth rescue, plate reader. Nature of the test: SKN7 mediated toxicity in Saccharomyces cerevisiae, growth rescue counterscreen, dose confirmation (AID 624258).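 Also: growth read after three days of incubation at 30 °C.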

Turning to `Cc1c2cnccc2c(C)c2c1oc1ccccc12`, the AC40 was 2.99 µM. The result for `CC(C)(C)c1cc(CCC(=O)NNC(=S)NC(=O)c2ccccc2)cc(C(C)(C)C)c1O` reads 6.31 µM. Under `O=C1c2ccccc2NC(c2ccc(-c3ccc(F)cc3)o2)N1O` (centres undefined) stands 14 µM. For the compound `O=C(N[C@@H](Cc1ccccc1)C(=O)CCl)OCc1ccccc1`, the AC40 is 1.14 µM. The result for `COc1cccc(NC=C2C(=O)OC3(CCCCC3)OC2=O)c1` reads 5.08 µM; that for `O=C1c2ccccc2C(=O)c2c1oc(C(F)(F)F)c2C(=O)c1ccccc1`, 2.6 µM; that for `C[C@@]12C(=O)Nc3ccc(F)cc3C(=O)N1[C@H]1c3ccccc3OC[C@@H]1[C@@H]2c1ccccc1`, 11.5 µM. Under `O=C(COc1ccc(Cl)cc1)NCCSCc1cccc(Cl)c1` stands 3.16 µM. Under `CCc1oc2ccccc2c1C(=O)c1cc(Br)c(O)c(Br)c1` stands 0.912 µM. As to `CCOC(=O)CSC1=NC(=O)/C(=C\c2ccc(Cl)cc2)S1`, the AC40 was 6.09 µM. Under `COC(=O)/C=C\C(=O)Nc1cccc([N+](=O)[O-])c1` stands 2.17 µM; under `Cc1n[nH]c(C)c1N=Nc1ccc(Br)cc1`, 1.76 µM. Under `S=C1SCN(Cc2cccnc2)CN1Cc1cccnc1` stands 1.01 µM. With `Cc1cccc(N2C(=O)C(Oc3ccc(Cl)cc3Cl)C2C=O)c1C` (centres undefined), the AC40 is 1.98 µM. Regarding `CCN(CC)c1ccc(/C=N/NC(=O)c2cccc(S(=O)(=O)N3CCOCC3)c2)c(O)c1`, the AC40 is 1.39 µM. The result for `Cc1ccc(NC(=O)CN(C)C(=O)c2cccnc2Nc2cccc(C(F)(F)F)c2)cc1` reads 5.69 µM; that for `O=C(O)c1ccc(C(=O)c2cc([N+](=O)[O-])cc([N+](=O)[O-])c2)cc1`, 15.7 µM.

In the case of `COc1ccc2cnn(CCOc3cc(C)ccc3C(C)C)c(=O)c2c1OC`, the AC40 is 4.15 µM. Under `O=c1[nH]cc(F)c(=O)[nH]1` stands 9.32 µM.
